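Five concentrations, 48 hours, 96-well plates. GI50 is the concentration that inhibits growth by half.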 Active and inactive are the calls of the source. Rule as the data show it: active = GI50 up to about 1.1 µM and inactive = higher.
Experiments:
Test in all cases: NCI-60 cell line screen, 48 h
[1] = test system: A498
[2] = test system: ACHN
[3] = test system: DU-145
[4] = test system: HCT-116
[5] = test system: HOP-92
[6] = test system: K562
[7] = test system: M14
[8] = test system: MCF7
[9] = test system: MOLT-4
[10] = test system: Malme-3M
[11] = test system: RXF 393
[12] = test system: SF-295
[13] = test system: SF-539
[14] = test system: SK-MEL-2
[15] = test system: SNB-19
[16] = test system: TK-10
[17] = test system: UO-31
[18] = test system: MDA-N
[19] = test system: NCI-H522

Measured: GI50

O=c1[nH]c(=O)c2ncn(-c3ccc([N+](=O)[O-])cn3)c2[nH]1
inactive: [1] > 100 µM | [2] > 100 µM | [3] > 100 µM | [4] > 100 µM | [5] > 100 µM | [6] > 100 µM | [7] > 100 µM | [8] > 100 µM | [9] > 100 µM | [10] 2.79 µM | [11] > 100 µM | [12] > 100 µM | [13] > 100 µM | [14] > 100 µM | [15] > 100 µM | [16] > 100 µM | [17] > 100 µM

O=C(Cn1c2ccc(Br)cc2c2nc3ccccc3nc21)NNC(=S)NC1CCCCC1
inactive: [1] 16.7 µM | [2] 16 µM | [3] 15.5 µM | [4] 13.9 µM | [5] 11.8 µM | [6] 13.3 µM | [7] 11.9 µM | [18] 16.8 µM | [9] 10.7 µM | [10] 19.7 µM | [19] 14.5 µM | [11] 6.89 µM | [12] 13.1 µM | [14] 17.2 µM | [15] 13.3 µM | [16] 15.4 µM | [17] 10.5 µM

COC(=O)C1=C(N)C2=C(N)Oc3ccccc3C2CC1=C(C#N)C#N (configuration not stated)
inactive: [1] 25.8 µM | [2] 24.5 µM | [3] 26.5 µM | [4] 23.5 µM | [6] 19.6 µM | [7] 19.4 µM | [8] 12.7 µM | [9] 33.4 µM | [10] 21.6 µM | [19] 15.8 µM | [11] 26 µM | [12] 25 µM | [13] 43.6 µM | [14] 25.9 µM | [15] 18.6 µM | [16] 25.6 µM | [17] 19.2 µM

COc1ccc2c(c1OC(C)=O)C1=CC(=O)CCC13CCNC3C2 (configuration not stated)
inactive: [2] > 100 µM | [3] > 100 µM | [4] > 100 µM | [5] > 100 µM | [6] > 100 µM | [7] > 100 µM | [8] > 100 µM | [18] > 100 µM | [9] > 100 µM | [10] > 100 µM | [19] > 100 µM | [11] > 100 µM | [12] > 100 µM | [14] > 100 µM | [15] > 100 µM | [16] > 100 µM | [17] > 100 µM

Cn1/c(=N\c2ccccc2[N+](=O)[O-])sc2ccccc21
inactive: [1] 54.8 µM | [2] 61.5 µM | [3] > 100 µM | [4] 72.8 µM | [5] 14.7 µM | [6] > 100 µM | [18] > 100 µM | [9] > 100 µM | [10] > 100 µM | [19] 9.29 µM | [11] 30.1 µM | [12] 42.6 µM | [13] 28.2 µM | [14] 33.7 µM | [15] 36.1 µM | [16] 8.93 µM | [17] > 100 µM

COc1ccc(NC(=O)/C(O)=C/C(=O)c2ccccc2)cc1
inactive: [3] > 10 µM | [5] > 10 µM | [6] > 10 µM | [7] > 10 µM | [8] > 10 µM | [18] > 10 µM | [9] 1.95 µM | [10] > 10 µM | [11] > 10 µM | [12] > 10 µM | [16] > 10 µM

Cc1ccc(-n2c(Cn3nnc(-c4cccnc4)n3)nn(C3OC(COC(=O)c4ccccc4)C(OC(=O)c4ccccc4)C3OC(=O)c3ccccc3)c2=S)cc1 (configuration not stated)
inactive: [2] > 100 µM | [3] > 100 µM | [4] > 100 µM | [6] > 100 µM | [7] > 100 µM | [8] > 100 µM | [18] > 100 µM | [9] > 100 µM | [10] 38.4 µM | [19] > 100 µM | [11] > 100 µM | [12] > 100 µM | [13] > 100 µM | [14] > 100 µM | [15] 32.3 µM | [16] > 100 µM | [17] > 100 µM

N#CC1=C(N)Nc2nc3ccccc3n2C1c1ccccc1 (configuration not stated)
inactive: [1] 21.6 µM | [2] 23.3 µM | [3] 35.3 µM | [4] 29.8 µM | [6] 59.7 µM | [7] > 100 µM | [8] 97.7 µM | [9] 49 µM | [11] 16.1 µM | [12] 27.7 µM | [13] > 100 µM | [14] 77.8 µM | [15] > 100 µM | [17] 64.3 µM

ClC1=C(Cl)C(Cl)(Cl)c2c3c(c4c(c21)C(Cl)(Cl)C(Cl)=C4Cl)C(Cl)(Cl)C(Cl)=C3Cl
inactive: [2] > 100 µM | [4] > 100 µM | [6] > 100 µM | [7] > 100 µM | [9] > 100 µM | [10] > 100 µM | [19] 33.1 µM | [12] > 100 µM | [13] > 100 µM | [15] > 100 µM

O=C(O)C(F)(OC(F)(F)C(F)(F)C(F)(F)F)C(F)(F)F (configuration not stated)
inactive: [1] > 100 µM | [2] > 100 µM | [3] > 100 µM | [4] > 100 µM | [5] > 100 µM | [6] > 100 µM | [7] > 100 µM | [8] > 100 µM | [9] > 100 µM | [10] > 100 µM | [19] > 100 µM | [11] > 100 µM | [12] > 100 µM | [13] > 100 µM | [14] > 100 µM | [15] > 100 µM | [16] > 100 µM | [17] > 100 µM

CCCCCCCCCCCCOP(=O)(O)OP(=O)(O)OCC1OC(n2ccc(N)nc2=O)CC1O (configuration not stated)
inactive: [1] > 100 µM | [2] > 100 µM | [4] > 100 µM | [5] > 100 µM | [6] > 100 µM | [7] > 100 µM | [8] > 100 µM | [18] > 100 µM | [9] > 100 µM | [10] > 100 µM | [19] > 100 µM | [11] > 100 µM | [12] > 100 µM | [13] > 100 µM | [14] > 100 µM | [15] > 100 µM | [16] > 100 µM | [17] > 100 µM

COc1cc(O)c2c(c1)C(=O)c1cc3c(c(O)c1C2=O)C(OC1OC(C)C(OC)C(O)C1OC)C(OC)C(C)(O)C3=O (configuration not stated)
inactive: [1] 5.53 µM | [2] 2.14 µM | [4] 2.81 µM | [6] 3.58 µM | [7] 3.02 µM | [8] 5.58 µM | [9] 3.14 µM | [10] 2.39 µM | [19] 1.68 µM | [12] 4.73 µM | [13] 3.92 µM | [14] 8.11 µM | [15] 6.53 µM | [16] 3.67 µM

Source: ChEMBL document CHEMBL1201862, “PubChem BioAssay data set” (2004)
